Measurements published in patent US9771360B2, “Cyano-substituted imidazo[1,2-A]pyridinecarboxamides and their use” (Bayer Pharma Aktiengesellschaft, priority 2014, dated 2017).

target: T1, recombinant guanylate cyclase reporter cell line (Rattus norvegicus, UniProt P19686+P20595); assay: Effect on a recombinant guanylate cyclase reporter cell line (B-2); format: cell-based; conditions: MEC = minimum effective concentration; in some cases mean values from individual determinations
T1 construct: expressed in transfected cells
T1 sequence (P20595 1-619): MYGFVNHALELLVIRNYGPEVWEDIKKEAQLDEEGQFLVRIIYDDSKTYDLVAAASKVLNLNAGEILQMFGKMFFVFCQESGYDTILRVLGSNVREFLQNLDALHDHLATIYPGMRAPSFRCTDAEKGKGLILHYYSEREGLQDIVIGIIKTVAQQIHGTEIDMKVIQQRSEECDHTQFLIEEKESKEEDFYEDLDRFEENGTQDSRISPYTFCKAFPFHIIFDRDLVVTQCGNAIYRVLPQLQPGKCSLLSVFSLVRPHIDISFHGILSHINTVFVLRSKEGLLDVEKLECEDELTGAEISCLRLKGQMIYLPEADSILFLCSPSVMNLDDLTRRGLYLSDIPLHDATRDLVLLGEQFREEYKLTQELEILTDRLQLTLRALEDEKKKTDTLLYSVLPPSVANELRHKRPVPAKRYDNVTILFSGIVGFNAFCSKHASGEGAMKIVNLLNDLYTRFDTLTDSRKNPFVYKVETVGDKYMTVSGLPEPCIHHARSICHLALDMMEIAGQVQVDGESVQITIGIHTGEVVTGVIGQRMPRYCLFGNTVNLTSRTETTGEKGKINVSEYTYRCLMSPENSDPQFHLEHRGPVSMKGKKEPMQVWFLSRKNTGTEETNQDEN
T1 sequence (P19686 1-690): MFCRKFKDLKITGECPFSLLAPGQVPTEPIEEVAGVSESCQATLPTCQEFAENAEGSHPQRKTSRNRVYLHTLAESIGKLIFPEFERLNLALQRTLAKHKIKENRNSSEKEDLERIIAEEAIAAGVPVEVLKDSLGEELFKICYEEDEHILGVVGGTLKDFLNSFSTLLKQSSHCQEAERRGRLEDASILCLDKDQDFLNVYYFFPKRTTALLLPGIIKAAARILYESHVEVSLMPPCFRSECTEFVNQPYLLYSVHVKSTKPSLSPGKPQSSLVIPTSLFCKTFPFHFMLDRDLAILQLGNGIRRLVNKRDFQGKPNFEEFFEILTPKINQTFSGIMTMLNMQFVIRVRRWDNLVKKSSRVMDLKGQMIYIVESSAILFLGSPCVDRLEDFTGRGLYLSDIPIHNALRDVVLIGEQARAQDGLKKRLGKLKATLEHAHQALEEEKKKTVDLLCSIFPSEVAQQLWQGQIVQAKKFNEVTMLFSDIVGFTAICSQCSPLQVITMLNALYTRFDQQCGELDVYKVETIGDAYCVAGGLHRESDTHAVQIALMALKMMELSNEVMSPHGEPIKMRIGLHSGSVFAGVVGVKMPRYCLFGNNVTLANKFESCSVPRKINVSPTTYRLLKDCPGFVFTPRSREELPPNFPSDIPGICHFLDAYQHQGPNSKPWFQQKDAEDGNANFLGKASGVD
Method: B-2. Effect on a Recombinant Guanylate Cyclase Reporter Cell Line
The cellular activity of the compounds according to the invention is determined using a recombinant guanylate cyclase reporter cell line, as described in F. Wunder et al., Anal. Biochem. 339, 104-112 (2005).
Representative MEC values (MEC=minimum effective concentration) for the compounds of the invention are shown in the table below (in some cases as mean values from individual determinations): […]

Row | SMILES | MEC [µM]
1 | Cc1cc(OCc2c(F)cccc2F)c2nc(C)c(C(=O)NC(C)C#N)n2c1 (racemic) [Example 1, rac-N-(1-Cyanoethyl)-8-[(2,6-difluorobenzyl)oxy]-2,6-dimethylimidazo[1,2-a]pyridine-3-carboxamide] | 0.55
2 | Cc1cc(OCc2c(F)cccc2F)c2nc(C)c(C(=O)NC(C)(C#N)C3CC3)n2c1 (racemic) [Example 6, rac-N-(1-cyano-1-cyclopropylethyl)-8-[(2,6-difluorobenzyl)oxy]-2,6-dimethylimidazo[1,2-a]pyridine-3-carboxamide] | 0.1
3 | COCC(C)(C#N)NC(=O)c1c(C)nc2c(OCc3c(F)cccc3F)cc(C)cn12 (racemic) [Example 7, rac-N-(2-cyano-1-methoxypropan-2-yl)-8-[(2,6-difluorobenzyl)oxy]-2,6-dimethylimidazo[1,2-a]pyridine-3-carboxamide] | 0.3
4 | Cc1cc(OCc2c(F)cccc2F)c2nc(C)c(C(=O)NC(C#N)c3ccc(Cl)cc3)n2c1 (racemic) [Example 8, rac-N-[(4-chlorophenyl)(cyano)methyl]-8-[(2,6-difluorobenzyl)oxy]-2,6-dimethylimidazo[1,2-a]pyridine-3-carboxamide] | 0.1
5 | CCC(CC#N)NC(=O)c1c(C)nc2c(OCc3c(F)cccc3F)cc(C)cn12 (racemic) [Example 13, rac-N-(1-cyanobutan-2-yl)-8-[(2,6-difluorobenzyl)oxy]-2,6-dimethylimidazo[1,2-a]pyridine-3-carboxamide] | 1
6 | Cc1cc(OCc2c(F)ccc(F)c2F)c2nc(C)c(C(=O)NC(C#N)c3ccc(Cl)cc3)n2c1 (racemic) [Example 17, rac-N-[(4-Chlorophenyl)(cyano)methyl]-2,6-dimethyl-8-[(2,3,6-trifluorobenzyl)oxy]imidazo[1,2-a]pyridine-3-carboxamide] | 0.3
7 | N#CC(NC(=O)c1cnc2c(OCc3c(F)cccc3F)cccn12)c1ccc(Cl)cc1 (racemic) [Example 18, rac-N-[(4-chlorophenyl)(cyano)methyl]-8-[(2,6-difluorobenzyl)oxy]imidazo[1,2-a]pyridine-3-carboxamide] | 10
8 | Cc1cc(OCc2ncccc2F)c2nc(C)c(C(=O)NC(C#N)c3ccc(Cl)cc3)n2c1 (racemic) [Example 19, rac-N-[(4-chlorophenyl)(cyano)methyl]-8-[(3-fluoropyridin-2-yl)methoxy]-2,6-dimethylimidazo[1,2-a]pyridine-3-carboxamide] | 1
9 | Cc1nc2c(OCC3CCCCC3)cccn2c1C(=O)NC(C#N)c1ccc(Cl)cc1 (racemic) [Example 20, rac-N-[(4-chlorophenyl)(cyano)methyl]-8-(cyclohexylmethoxy)-2-methylimidazo[1,2-a]pyridine-3-carboxamide] | 1
10 | Cc1nc2c(OCc3ncccc3F)cccn2c1C(=O)NC(C#N)c1ccc(Cl)cc1 (racemic) [Example 21, rac-N-[(4-chlorophenyl)(cyano)methyl]-8-[(3-fluoropyridin-2-yl)methoxy]-2-methylimidazo[1,2-a]pyridine-3-carboxamide] | 10
11 | COc1ccc(F)c(COc2cc(C)cn3c(C(=O)NC(C#N)c4ccc(Cl)cc4)c(C)nc23)c1F (racemic) [Example 22, rac-N-[(4-chlorophenyl)(cyano)methyl]-8-[(2,6-difluoro-3-methoxybenzyl)oxy]-2,6-dimethylimidazo[1,2-a]pyridine-3-carboxamide] | 3
12 | Cc1cc(OCCC(C(F)(F)F)C(F)(F)F)c2nc(C)c(C(=O)NC(C#N)c3ccc(Cl)cc3)n2c1 (racemic) [Example 23, rac-N-[(4-chlorophenyl)(cyano)methyl]-2,6-dimethyl-8-[4,4,4-trifluoro-3-(trifluoromethyl)butoxy]imidazo[1,2-a]pyridine-3-carboxamide] | 3
13 | Cc1cc(OCCC(C)C)c2nc(C)c(C(=O)NC(C#N)c3ccc(Cl)cc3)n2c1 (racemic) [Example 25, rac-N-[(4-chlorophenyl)(cyano)methyl]-2,6-dimethyl-8-(3-methylbutoxy)imidazo[1,2-a]pyridine-3-carboxamide] | 3
14 | CCc1nc2c(OCc3c(F)cccc3F)cc(C)cn2c1C(=O)NC(C#N)c1ccc(Cl)cc1 (racemic) [Example 27, rac-N-[(4-chlorophenyl)(cyano)methyl]-8-[(2,6-difluorobenzyl)oxy]-2-ethyl-6-methylimidazo[1,2-a]pyridine-3-carboxamide] | 0.3
15 | COc1cc(OCc2c(F)cccc2F)c2nc(C)c(C(=O)NC(C#N)c3ccc(Cl)cc3)n2c1 (racemic) [Example 28, rac-N-[(4-chlorophenyl)(cyano)methyl]-8-[(2,6-difluorobenzyl)oxy]-6-methoxy-2-methylimidazo[1,2-a]pyridine-3-carboxamide] | 1
16 | Cc1nc2c(OCc3c(F)cccc3F)cc(Cl)cn2c1C(=O)NC(C#N)c1ccc(Cl)cc1 (racemic) [Example 29, rac-6-chloro-N-[(4-chlorophenyl)(cyano)methyl]-8-[(2,6-difluorobenzyl)oxy]-2-methylimidazo[1,2-a]pyridine-3-carboxamide] | 1
17 | Cc1cc(OCc2c(F)cncc2F)c2nc(C)c(C(=O)NC(C#N)c3ccc(Cl)cc3)n2c1 (racemic) [Example 30, rac-N-[(4-chlorophenyl)(cyano)methyl]-8-[(3,5-difluoropyridin-4-yl)methoxy]-2,6-dimethylimidazo[1,2-a]pyridine-3-carboxamide] | 1
18 | Cc1cc(OCC2CC(F)(F)C2)c2nc(C)c(C(=O)NC(C#N)c3ccc(Cl)cc3)n2c1 (racemic) [Example 31, rac-N-[(4-chlorophenyl)(cyano)methyl]-8-[(3,3-difluorocyclobutyl)methoxy]-2,6-dimethylimidazo[1,2-a]pyridine-3-carboxamide] | 10
19 | Cc1cc(OCc2c(F)cccc2F)c2nc(C)c(C(=O)NC(C#N)C(N)=O)n2c1 (racemic) [Example 34, rac-N-(2-amino-1-cyan-2-oxoethyl)-8-[(2,6-difluorobenzyl)oxy]-2,6-dimethylimidazo[1,2-a]pyridine-3-carboxamide] | 1
20 | Cc1cc(OCc2c(F)cccc2F)c2nc(C)c(C(=O)NC(CN)CC#N)n2c1 (racemic) [Example 39, rac-N-(1-Amino-3-cyanopropan-2-yl)-8-[(2,6-difluorobenzyl)oxy]-2,6-dimethylimidazo[1,2-a]pyridine-3-carboxamide] | 1
21 | Cc1cc(OCc2c(F)cccc2F)c2nc(C)c(C(=O)NCC(N)CCC#N)n2c1 (racemic) [Example 44, rac-N-(2-Amino-4-cyanobutyl)-8-[(2,6-difluorobenzyl)oxy]-2,6-dimethylimidazo[1,2-a]pyridine-3-carboxamide] | 1
22 | Cc1cc(OCc2c(F)cccc2F)c2nc(C)c(C(=O)NCC(N)CCCC#N)n2c1 (racemic) [Example 45, rac-N-(2-Amino-5-cyanopentyl)-8-[(2,6-difluorobenzyl)oxy]-2,6-dimethylimidazo[1,2-a]pyridine-3-carboxamide] | 2
23 | Cc1cc(OCc2c(F)cccc2F)c2nc(C)c(C(=O)NC(C)C#N)n2c1 (single isomer, unassigned) [Example 15, ent-N-(1-Cyanoethyl)-8-[(2,6-difluorobenzyl)oxy]-2,6-dimethylimidazo[1,2-a]pyridine-3-carboxamide] | 0.3
